{"source": "patent US12478001B2", "about": "“Plant activator containing amino acid or salt thereof, and oligosaccharide, and use thereof” (priority 2019, dated 2025)", "data": [{"test_system": "komatsuna", "test": "Evaluation of komatsuna elicitor activity (glucanase activity measurement)", "type": "in vivo", "details": "komatsuna grown 6 days on MS agar medium containing plant vitalizer; glucanase activity (Abs590) of leaf extract; control = Comparative Example 3 without vitalizer", "description": "(i) The plant is sampled and pretreated; (ii) a calibration curve is drawn using BSA as the protein standard (using absorbance at a wavelength (600 nm) in a dye binding method); (iii) the protein concentration of the specimen prepared in (i) is measured; (iv) the glucanase activity of the specimen prepared in (i) is measured.\nEach oligosaccharide prepared in [1. Preparation of oligosaccharide] and each amino acid prepared in [2. […] Each stock solution was diluted 1000-fold with water and used for the following cultivation test.\nMurashige and Skoog (MS) agar medium was used for raising of the komatsuna.\nHigh-pressure steam sterilized MS medium was transferred into a plant box on a clean bench and thoroughly cooled, and then komatsuna (“Wakami”, Sakata Seed Corp.) were seeded in a count of 10 each. They were then grown for 6 days with long-day conditions of 24 hours in a lighted room at 22° C.\nAfter adding 300 μl of the prepared protein extraction buffer into a 1.5 ml tube equipped with a Biomasher (Nippi, Inc.), leaves (plant body) sampled and cut with scissors to approximately 4×4 mm were added. The procedure was carried out 5 times for each sample. A stirring rod was then rotated by hand to break up the plant body until the solid portion was generally no longer visible. Centrifugal separation was carried out under conditions of 15,000×g, 10 minutes, 4° C., and the aqueous layer was collected into a fresh 1.5 ml tube to prepare a liquid extract.\nA 2 mg/ml portion of bovine serum albumin (BSA) of known purity was serially diluted (1/2, 1/4, 1/8, 1/16, 1/32 and 1/64 dilution) to prepare standards. The prepared standards were used to determine the average absorbance at 600 nm (Abs600), and a calibration curve was drawn (n=3). After injecting 300 μl of Coomassie Brilliant Blue (CBB) solution into a 96-well plate, 6 μl of the prepared liquid extract was added. The Abs600 was then measured. The blank used was MilliQ. The absorbance of the liquid extract was fitted onto the calibration curve drawn with the 2 mg/ml of serially diluted BSA, to determine the protein concentration.\nDilution was carried out to a constant liquid extract concentration using the determined values, and the diluted extract was used for the following glucanase activity measurement.\nIn a 1.5 ml tube there were mixed 100 μl of a B-HS substrate solution prepared by suspending one tablet of B-HS reagent (Megazyme Co.) in 10 ml of MilliQ, 50 μl of 0.2 M phosphate buffer solution (pH 6.0) and 50 μl of the previously prepared diluted solution or ultrapure water (blank), to prepare samples for each of the Comparative Examples and Examples. Enzyme reaction was conducted for 1 hour and 30 minutes in a water bath at 30° C., shaking the sample well every 15 minutes. A 100 μl portion of 0.2 N NaOH as reaction stop solution (total: 300 μl) was added to stop the reaction.", "values": [{"smiles": "NCCCC[C@H](N)C(=O)O", "note": "[Comparative Example 6, Lysine]", "Elicitor activity (compared to control as 100)": 104}, {"smiles": "NCC(=O)O", "note": "[compound 5, Glycine]", "Elicitor activity (compared to control as 100)": 141}, {"smiles": "N[C@@H](CCC(=O)[O-])C(=O)[O-].[Na+].[Na+]", "note": "[compound 7, Sodium glutamate]", "Elicitor activity (compared to control as 100)": 82}, {"smiles": "N[C@@H](Cc1c[nH]cn1)C(=O)O", "note": "[compound 8, Histidine]", "Elicitor activity (compared to control as 100)": 89}, {"smiles": "C[C@H](N)C(=O)O", "note": "[compound 9, Alanine]", "Elicitor activity (compared to control as 100)": 72}, {"smiles": "N=C(N)NCCC[C@H](N)C(=O)O", "note": "[compound 10, Arginine]", "Elicitor activity (compared to control as 100)": 79}]}, {"test_system": "frill lettuce", "test": "Frill lettuce hydroponic cultivation test, root dry weight", "type": "in vivo", "details": "hydroponics, 60 days cultivation, percentage with non-added group root dry weight as 100%, vitalizer 50-100 ppm by mass", "description": "Each oligosaccharide prepared in [1. Preparation of oligosaccharide] and each amino acid prepared in [2. Preparation of amino acids] were dissolved in water while stirring with a stirrer in a compositional ratio to 1000 times the plant vitalizer concentration (ppm by mass) in Comparative Examples 1 and 2 and Examples 1 and 6 to 7 listed in the tables, after which the bacteria were removed with a 0.45 μm filter, to obtain plant vitalizer stock solutions.\nIn the test groups, 150 g of each of the plant vitalizer stock solutions under different conditions was added to and dispersed in 150 L of culture solution prepared for hydroponics (1000-fold dilution), and cultivation was started for each of 120 varieties at a temperature of 20 to 22° C. Cultivation was carried out for a total of 60 days, with a total of 5 times every week after beginning further addition of 150 g of plant vitalizer stock solution, and the root dry weights of the frill lettuce were measured.\nThe root dry weights were determined by cutting the root parts, drying the cut roots with a constant temperature dryer for 12 hours at 50° C., and then measuring the weights.\nThe root dry weights in Table 1 are percentages (%) with respect to 100% as the root dry weight in the non-added group without plant vitalizer addition.", "units": {"Increase in root dry weight with respect to non-added group (measured n = 5)": "%"}, "values": [{"smiles": "NCC(=O)O", "note": "[Comparative Example 2, Glycine]", "Increase in root dry weight with respect to non-added group (measured n = 5)": 112}]}, {"test_system": "komatsuna", "test": "Measurement of komatsuna fresh weight after foliar application", "type": "in vivo", "details": "komatsuna raised 34 days in soil, vitalizer applied to leaves at one-week intervals; control = Comparative Example 11 without vitalizer", "description": "Each oligosaccharide prepared in [1. […] Each stock solution was diluted 1000-fold with water and used for the following cultivation test. A sample was prepared with […] Corp.) as the plant crop, organic vegetable soil (Hirota Shoten) as the soil and Shin-Taki Organic Liquid Fertilizer #3 (Taki Chemical Co., Ltd.) as the fertilizer. After sprouting the plants on filter paper, they were planted into a 25-hole connected pot (280×280 mm overall, with holes of 50×50×50 mm) containing culturing soil and fertilizer.", "units": {"Fresh weight (compared to control as 100)": "%"}, "values": [{"smiles": "N[C@@H](Cc1c[nH]cn1)C(=O)O", "note": "[compound 12, Histidine]", "Fresh weight (compared to control as 100)": 92}, {"smiles": "NCC(=O)O", "note": "[compound 13, Glycine]", "Fresh weight (compared to control as 100)": 102}, {"smiles": "N[C@@H](CCC(=O)[O-])C(=O)[O-].[Na+].[Na+]", "note": "[compound 14, Sodium glutamate]", "Fresh weight (compared to control as 100)": 89}]}]}
